Laboratory results taken from patent US12037372B2, “Bioactive peptides derived from snakes” (Universiteit Leiden, priority 2018, dated 2024).
Where “and” joins values, the source holds several entries; their conditions need not be identical. Equal entries are not always repeated.

Columns and labels:
[1] = test system: MDR P. aeruginosa (LUH 15103); assay: Bactericidal activity of peptides (in vitro killing assay); assay type: cell-based, Pseudomonas aeruginosa; details: 2-hour treatment, 50% v/v human plasma, median (range)
Procedure: (§1) Enterococcus faecium (LUH 15122), Staphylococcus aureus (LUH 14616), Klebsiella pneumoniae (LUH 15104), Acinetobacter baumannii (RUH 875), Pseudomonas aeruginosa (LUH 15103), Enterobacter cloacae (LUH 15114) and Escherichia coli (LUH 15117) were used. Prior to experimentation the bacteria were taken from a glycerol stock stored at −80° C. and cultured overnight on sheep blood agar plates at 37° C. On the day of experimentation the bacteria were cultured in tryptic soy broth (TSB; Oxoid) for 2.5 hours at 37° C. and 200 rpm to a mid-logarithmic phase. The bacterial suspension was washed in phosphate buffered saline (PBS; pH 7.4), centrifuged for 10 minutes at 3000 rpm, and resuspended in PBS to the desired concentration, as determined by measuring the absorbance at 600 nm.
(§2) As a control the bacteria were also incubated in PBS with either 50% plasma or 50% urine without peptide. The plate was incubated for 2 hours at 37° C. and 200 rpm. After incubation the number of viable bacteria was determined microbiologically by plating the samples and a 10-times dilution series in PBS on diagnostic sensitivity test agar plates (DST; Sigma). The DST plates were incubated overnight at 37° C. Results were expressed as lethal concentration 99.9, or LC99.9, which represents the lowest concentration of peptide that killed 99.9% of the bacteria within 2 hours of incubation.

[2] = test system: MDR S. aureus (LUH 14616), MRSA; assay: as above; assay type: cell-based, Staphylococcus aureus; details: MDR S. aureus LUH 14616; 2-hour treatment; 50% v/v human plasma; lowest concentration killing ≥99.9%; median (range)
Procedure: as §1, §2

[3] = test system: multidrug resistant strain Acinetobacter baumannii RUH875; assay: as above; assay type: cell-based; details: 50% (v/v) human plasma, 2 hours
Procedure: as §1, §2

human neutrophils = assay: Neutrophil migration assay; assay type: cell-based; details: 3.2 μM peptide
Procedure: Heparinized blood was collected from healthy human volunteers. Next, 10 ml of blood were mixed to 15 ml of PBS in a tube. Underneath the diluted blood, 10 ml of Ficoll (Pharmacy, LUMC) were added. The tube was spun at 1800 rpm for 20 minutes without brake. The supernatant was removed and 40 ml of erythrocyte lysis buffer (0.1 mM EDTA, 0.18 M NH4Cl, 10 mM KHCO3) were added to the pellet. This mixture was incubated at room temperature until erythrocyte lysis was evident. The tube was centrifuged at 1200 rpm for 10 minutes, the supernatant was discarded. The pellet was washed again with PBS the same way. The pellet was resuspended in RPMI 1640 medium and the cells were counted with a counting chamber. The cells were diluted to 2×10^6 cells/ml of RPMI 1640. The inserts with a 3.0 μm pore size in a 12-well plate (HTS transwell; Costar) were blocked with 400 μl of PBS with 0.1% w/v BSA for 10 minutes at room temperature after which the BSA solution was discarded. The 2×10^6 cells/ml suspension was diluted with RPMI to add 400 μl of a 2×10^5 cells/ml suspension to the inserts. […] In the lower compartment 1 ml of the chemoattractant was added. […] Results were expressed as the percentage of migrated neutrophils compared to the positive FMLP control, and corrected for the negative control.

DQVERGNFAKDGSKARVKKSLTKWVKFLKKIIAKLGRPLIGF [SP22]
LC99.9 (μM) MDR P. aeruginosa in 50% plasma [1]: 51.2 µM
LC99.9 (μM) MRSA in 50% plasma [2]: 102.4 µM

KRFVGSFQLVVGVSFRF [SP34]
LC99.9 (μM) MDR P. aeruginosa in 50% plasma [1]: >102.4 µM
LC99.9 (μM) MRSA in 50% plasma [2]: >102.4 µM

KRFAGFFQFVIGVSFHF [SP21]
LC99.9 (μM) MDR P. aeruginosa in 50% plasma [1]: >102.4 µM
LC99.9 (μM) MRSA in 50% plasma [2]: >102.4 µM

KRFKKFFKKAKKSVKKRLKKFFNKTRVIGVSIPF [SP14]
LC99.9 (μM) MDR P. aeruginosa in 50% plasma [1]: 0.4 µM
LC99.9 (μM) MRSA in 50% plasma [2]: 12.8 µM

KRFTFYKKVKKNVENLLNKFFKKLRVIGDSIPF [SP26]
LC99.9 (μM) MDR P. aeruginosa in 50% plasma [1]: 12.8 µM
LC99.9 (μM) MRSA in 50% plasma [2]: >102.4 µM

KRFKKFFMKLKKSVKKRVMKFFKKPMVIGVTFPF [SP12]
LC99.9 (μM) MDR P. aeruginosa in 50% plasma [1]: 3.2 µM
LC99.9 (μM) MRSA in 50% plasma [2]: 25.6 (12.8->102.4) μM

KRFKKFFKKLKNSVKKRVKKFFRKPRVIGVTFPF [SP3]
LC99.9 (μM) MDR P. aeruginosa in 50% plasma [1]: 0.8 µM
LC99.9 (μM) MRSA in 50% plasma [2]: 3.2 µM

KFFRKVKKGVHRYFKKNKFYIAAT [SP27-67]
LC99.9 (μM) A. baumannii ([3]; Table 5): 3.2 µM

KRFLRVFRKLKKGLKKLFKRKKVVTGYVTA [SP32]
LC99.9 (μM) MDR P. aeruginosa in 50% plasma [1]: 12.8 µM
LC99.9 (μM) MRSA in 50% plasma [2]: 25.6 µM

KRFKKFLKKLKKSVKKHVKEFFKKPRVIGV [SP35]
LC99.9 (μM) MDR P. aeruginosa in 50% plasma [1]: 1.6 µM
LC99.9 (μM) MRSA in 50% plasma [2]: 51.2 µM

KRFKKFFKKIKNSVKKRVKKFFKKPRVIGVSIPF [SP23]
LC99.9 (μM) MDR P. aeruginosa in 50% plasma [1]: 0.2 µM
LC99.9 (μM) MRSA in 50% plasma [2]: 4.8 (3.2-6.4) μM

KRFLRLVVFKKLKKGLRKLFKKKKIVTGHVTS [SP28]
LC99.9 (μM) MDR P. aeruginosa in 50% plasma [1]: 6.4 µM
LC99.9 (μM) MRSA in 50% plasma [2]: 51.2 µM

KRFKDFFHRIRDGVRDFFRNNHFVCGVNFRF [SP17]
LC99.9 (μM) MDR P. aeruginosa in 50% plasma [1]: >102.4 µM
LC99.9 (μM) MRSA in 50% plasma [2]: >102.4 µM

VKKGVHRYFKKNKFYIAATIPYYG [SP27-72]
LC99.9 (μM) A. baumannii ([3]; Table 5): 25.6 µM

KRFKKFFRKVKKGVHRYFKKNKFY [SP27-63]
LC99.9 (μM) A. baumannii ([3]; Table 5): 0.4 µM
LC99.9 (μM) A. baumannii ([3]; Table 6): 0.4 µM

LL-37
migrated neutrophils (human neutrophils): 5.6%

KKFFRKVKKGVHRYFKKNKFYIAA [SP27-66]
LC99.9 (μM) A. baumannii ([3]; Table 5): 1.6 µM

KRFAGFFQFVVGVSFRF [SP33]
LC99.9 (μM) MDR P. aeruginosa in 50% plasma [1]: >102.4 µM
LC99.9 (μM) MRSA in 50% plasma [2]: >102.4 µM

AREKSFLQKMKVILQLSSQDQIQAF [SP20]
LC99.9 (μM) MDR P. aeruginosa in 50% plasma [1]: >102.4 µM
LC99.9 (μM) MRSA in 50% plasma [2]: >102.4 µM

KRFKKFFKKVKKSVKKRLKKIFKKPMVIGVTIPF [SP6]
LC99.9 (μM) MDR P. aeruginosa in 50% plasma [1]: 0.4 µM
LC99.9 (μM) MRSA in 50% plasma [2]: 57.6 (12.8-102.4) μM

RFKKFFRKVKKGVHRYFKKNKFYI [SP27-64]
LC99.9 (μM) A. baumannii ([3]; Table 5): 0.8 µM

KRFLRVFKKLKRGIRKLFKKKKIVTGPLTS [SP19]
LC99.9 (μM) MDR P. aeruginosa in 50% plasma [1]: 12.8 µM
LC99.9 (μM) MRSA in 50% plasma [2]: >102.4 µM

RKVKKGVHRYFKKNKFYIAATIPY [SP27-70]
LC99.9 (μM) A. baumannii ([3]; Table 5): 12.8 µM

KRFRKFFKRLLKSVRRAVKKFRKKPRLIGLSTLL [SP8]
LC99.9 (μM) MDR P. aeruginosa in 50% plasma [1]: 1.6 µM
LC99.9 (μM) MRSA in 50% plasma [2]: 25.6 µM

KRFKKFFKKIKTGIKKVIKKTKQAIASHFRW [SP18]
LC99.9 (μM) MDR P. aeruginosa in 50% plasma [1]: 0.8 µM
LC99.9 (μM) MRSA in 50% plasma [2]: > 102.4 µM and 102.4 µM

KRFKNFFKRVRDGIRDFFRKNHIVIGVNFRF [SP31]
LC99.9 (μM) MDR P. aeruginosa in 50% plasma [1]: 25.6 µM
LC99.9 (μM) MRSA in 50% plasma [2]: 102.4 µM

KRFKKFFKKVKKSVKKRLKKIFKKPIVIGVSIPF [SP25]
LC99.9 (μM) MDR P. aeruginosa in 50% plasma [1]: 0.4 µM
LC99.9 (μM) MRSA in 50% plasma [2]: 12.8 µM

KRFKKFFKKLKNSVRKCAKKFFKKLRVIRVSIPF [SP24]
LC99.9 (μM) MDR P. aeruginosa in 50% plasma [1]: 1.6 µM
LC99.9 (μM) MRSA in 50% plasma [2]: 6.4 µM

KVKKGVHRYFKKNKFYIAATIPYY [SP27-71]
LC99.9 (μM) A. baumannii ([3]; Table 5): 12.8 µM

KRFKKFFKKVKKSVKKRLKKIFKKPMVIGVSIPF [SP7]
LC99.9 (μM) MDR P. aeruginosa in 50% plasma [1]: 0.8 µM
LC99.9 (μM) MRSA in 50% plasma [2]: 38.4 (25.6-51.2) μM

KRFKNFFKKIRDGIHEFIHNNRFVIGVNFRF [SP29]
LC99.9 (μM) MDR P. aeruginosa in 50% plasma [1]: 51.2 µM
LC99.9 (μM) MRSA in 50% plasma [2]: >102.4 µM

KRVKRFKKFFKKVKKSVKKRLKKIFKKPMVIGVTIPF [SP2]
LC99.9 (μM) MDR P. aeruginosa in 50% plasma [1]: 0.4 µM
LC99.9 (μM) MRSA in 50% plasma [2]: 25.6 µM

KRFKKFFKKIKNGIKTFIKKTQMAIGSHFRW [SP30]
LC99.9 (μM) MDR P. aeruginosa in 50% plasma [1]: 2.4 (1.6-3.2) μM
LC99.9 (μM) MRSA in 50% plasma [2]: 51.2 µM

KRFKKFFKKVKKSVKKRLKKIFKKPMVIGVTFPF [SP9]
LC99.9 (μM) MDR P. aeruginosa in 50% plasma [1]: 1.6 µM
LC99.9 (μM) MRSA in 50% plasma [2]: 51.2 (25.6-51.2) μM

KRFKKFFRKLKKSVKKRVKKFFKKPRVIGVTIPF [SP11]
LC99.9 (μM) MDR P. aeruginosa in 50% plasma [1]: 0.4 µM
LC99.9 (μM) MRSA in 50% plasma [2]: 3.2 µM

FFRKVKKGVHRYFKKNKFYIAATI [SP27-68]
LC99.9 (μM) A. baumannii ([3]; Table 5): 12.8 µM

FKKFFRKVKKGVHRYFKKNKFYIA [SP27-65]
LC99.9 (μM) A. baumannii ([3]; Table 5): 1.6 µM

KRFKKFFRKIKKGFRKIFKKTKIFIGGTIPI [SP15]
LC99.9 (μM) MDR P. aeruginosa in 50% plasma [1]: 0.8 µM
LC99.9 (μM) MRSA in 50% plasma [2]: 12.8 µM

RKFKKSFKKIRKWVKKATKIAGEVAVEILITKVILGSVGL [SP1]
LC99.9 (μM) MDR P. aeruginosa in 50% plasma [1]: 3.2 µM
LC99.9 (μM) MRSA in 50% plasma [2]: >102.4 µM

FRKVKKGVHRYFKKNKFYIAATIP [SP27-69]
LC99.9 (μM) A. baumannii ([3]; Table 5): 25.6 µM
